Patent US12358886B2, “Heterocyclic compounds for use in the treatment of cancer” (Artios Pharma Limited, priority 2019, dated 2025)

Molecular target: Polθ protein (amino acids 2-2590) (Homo sapiens, UniProt O75417)
Assay: Polθ full length enzyme potency assay (PicoGreen)
Conditions: Polθ IC50 (nM), full length N-His, C-term FLAG tagged Polθ, PicoGreen fluorescence, 12 point concentration response

Sequence of Polθ protein (amino acids 2-2590) (O75417 2-2590): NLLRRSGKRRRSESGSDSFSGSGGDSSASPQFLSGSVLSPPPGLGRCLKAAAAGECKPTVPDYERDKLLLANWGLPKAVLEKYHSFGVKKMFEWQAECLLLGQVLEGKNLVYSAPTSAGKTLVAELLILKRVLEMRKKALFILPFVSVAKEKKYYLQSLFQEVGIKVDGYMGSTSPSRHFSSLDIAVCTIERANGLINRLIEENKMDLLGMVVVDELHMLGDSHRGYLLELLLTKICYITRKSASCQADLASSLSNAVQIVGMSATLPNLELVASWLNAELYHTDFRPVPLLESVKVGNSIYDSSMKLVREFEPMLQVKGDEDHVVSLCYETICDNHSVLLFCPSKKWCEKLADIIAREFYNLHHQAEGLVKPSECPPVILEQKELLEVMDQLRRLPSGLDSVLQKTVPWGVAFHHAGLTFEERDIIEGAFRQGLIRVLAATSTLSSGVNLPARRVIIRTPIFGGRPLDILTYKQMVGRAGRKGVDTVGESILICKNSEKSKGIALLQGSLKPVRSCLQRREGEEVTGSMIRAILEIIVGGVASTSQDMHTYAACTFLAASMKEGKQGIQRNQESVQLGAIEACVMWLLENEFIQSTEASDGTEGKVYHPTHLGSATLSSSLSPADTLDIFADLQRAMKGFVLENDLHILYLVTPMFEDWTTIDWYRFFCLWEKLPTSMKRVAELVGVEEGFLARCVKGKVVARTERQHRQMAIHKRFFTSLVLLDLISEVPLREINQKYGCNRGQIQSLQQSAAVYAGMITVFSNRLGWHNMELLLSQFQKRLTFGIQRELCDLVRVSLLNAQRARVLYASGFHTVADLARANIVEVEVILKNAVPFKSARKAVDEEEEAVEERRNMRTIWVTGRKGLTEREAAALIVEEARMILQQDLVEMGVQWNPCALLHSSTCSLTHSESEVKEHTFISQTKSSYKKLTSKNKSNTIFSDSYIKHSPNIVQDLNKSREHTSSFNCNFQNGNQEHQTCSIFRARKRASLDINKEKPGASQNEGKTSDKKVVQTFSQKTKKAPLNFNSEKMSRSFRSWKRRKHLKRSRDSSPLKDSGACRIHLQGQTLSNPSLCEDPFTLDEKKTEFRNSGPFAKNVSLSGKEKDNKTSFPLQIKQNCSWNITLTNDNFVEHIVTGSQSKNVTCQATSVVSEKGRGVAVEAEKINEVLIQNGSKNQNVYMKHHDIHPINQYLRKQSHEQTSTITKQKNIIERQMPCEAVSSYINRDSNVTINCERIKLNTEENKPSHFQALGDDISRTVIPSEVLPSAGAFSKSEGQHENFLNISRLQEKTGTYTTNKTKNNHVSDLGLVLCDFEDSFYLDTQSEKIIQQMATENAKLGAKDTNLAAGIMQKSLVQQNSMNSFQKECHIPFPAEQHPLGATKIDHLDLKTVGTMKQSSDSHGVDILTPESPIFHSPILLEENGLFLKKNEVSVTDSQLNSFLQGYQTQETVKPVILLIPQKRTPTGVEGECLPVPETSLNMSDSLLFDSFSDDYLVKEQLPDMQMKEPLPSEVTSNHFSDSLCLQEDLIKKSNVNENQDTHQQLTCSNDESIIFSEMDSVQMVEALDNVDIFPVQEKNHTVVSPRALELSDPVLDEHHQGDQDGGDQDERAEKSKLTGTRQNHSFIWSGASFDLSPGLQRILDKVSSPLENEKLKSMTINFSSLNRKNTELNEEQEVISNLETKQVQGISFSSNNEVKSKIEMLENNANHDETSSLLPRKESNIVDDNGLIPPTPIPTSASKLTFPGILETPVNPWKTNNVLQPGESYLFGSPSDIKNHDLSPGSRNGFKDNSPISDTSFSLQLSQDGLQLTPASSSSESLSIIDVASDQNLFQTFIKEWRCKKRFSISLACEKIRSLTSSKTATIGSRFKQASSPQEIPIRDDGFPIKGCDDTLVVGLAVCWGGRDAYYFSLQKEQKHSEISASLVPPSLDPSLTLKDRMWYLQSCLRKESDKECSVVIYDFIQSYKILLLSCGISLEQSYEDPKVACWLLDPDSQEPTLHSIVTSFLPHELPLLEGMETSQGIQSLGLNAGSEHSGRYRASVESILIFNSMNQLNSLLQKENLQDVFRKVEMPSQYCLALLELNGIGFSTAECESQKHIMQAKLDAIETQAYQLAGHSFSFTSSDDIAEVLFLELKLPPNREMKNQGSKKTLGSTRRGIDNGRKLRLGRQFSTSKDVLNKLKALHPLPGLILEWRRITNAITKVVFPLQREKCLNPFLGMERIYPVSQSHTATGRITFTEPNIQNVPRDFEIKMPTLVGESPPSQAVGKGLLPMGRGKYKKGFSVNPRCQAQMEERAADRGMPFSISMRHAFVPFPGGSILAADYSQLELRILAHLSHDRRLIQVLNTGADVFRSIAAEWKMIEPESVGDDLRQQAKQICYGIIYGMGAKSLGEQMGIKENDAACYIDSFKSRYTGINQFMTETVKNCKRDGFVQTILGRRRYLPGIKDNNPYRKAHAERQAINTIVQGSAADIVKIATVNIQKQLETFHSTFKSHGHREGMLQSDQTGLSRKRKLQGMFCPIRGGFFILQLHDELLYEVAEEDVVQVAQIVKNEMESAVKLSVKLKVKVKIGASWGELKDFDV

| Compound | IC50 [nM] |
| --- | --- |
| Cc1cc(C(F)(F)F)c(C#N)c(N2C[C@@H](N3CCOC(CO)C3)C[C@H]2C(=O)N(C)c2ccc(F)c(Cl)c2)n1 (stereo partly drawn) [Example 151, (2S,4S)-N-(3-Chloro-4-fluorophenyl)-1-(3-cyano-6-methyl-4-(trifluoromethyl)pyridin-2-yl)-4-(2-(hydroxymethyl)morpholino)-N-methylpyrrolidine-2-carboxamide] | 23 |
| CCN(C(=O)[C@@H]1C[C@H](N2CCOC[C@@H]2CO)CN1c1nc(C)cc(C(F)(F)F)c1C#N)c1ccc(F)c(Cl)c1 [Example 152, (2S,4S)-N-(3-Chloro-4-fluorophenyl)-1-(3-cyano-6-methyl-4-(trifluoromethyl)pyridin-2-yl)-N-ethyl-4-((S)-3-(hydroxymethyl)morpholino)pyrrolidine-2-carboxamide] | 26 |
| CCN(C(=O)[C@@H]1C[C@H](N2CCOC[C@H]2CO)CN1c1nc(C)cc(C(F)(F)F)c1C#N)c1ccc(F)c(Cl)c1 [Example 153, (2S,4S)-N-(3-Chloro-4-fluorophenyl)-1-(3-cyano-6-methyl-4-(trifluoromethyl)pyridin-2-yl)-N-ethyl-4-((R)-3-(hydroxymethyl)morpholino)pyrrolidine-2-carboxamide] | 104 |
| CCN(C(=O)[C@@H]1C[C@H](N2CCO[C@@H](CO)C2)CN1c1nc(C)cc(C(F)(F)F)c1C#N)c1ccc(F)c(Cl)c1 [Example 155, (2S,4S)-N-(3-Chloro-4-fluorophenyl)-1-(3-cyano-6-methyl-4-(trifluoromethyl)pyridin-2-yl)-N-ethyl-4-((R)-2-(hydroxymethyl)morpholino)pyrrolidine-2-carboxamide] | 15 |
| CCN(C(=O)[C@@H]1CNC(=O)N1c1cc(C(F)(F)F)cc(C)n1)c1ccc(F)c(Cl)c1 [Example 157, (S)—N-(3-Chloro-4-fluorophenyl)-N-ethyl-3-(6-methyl-4-(trifluoromethyl)pyridin-2-yl)-2-oxoimidazolidine-4-carboxamide] | 32 |
| Cc1cc(C(F)(F)F)cc(N2C(=O)N(S(C)(=O)=O)C[C@H]2C(=O)N(C)c2ccc(F)c(Cl)c2)n1 [Example 159, (S)—N-(3-Chloro-4-fluorophenyl)-N-methyl-3-(6-methyl-4-(trifluoromethyl)pyridin-2-yl)-1-(methylsulfonyl)-2-oxoimidazolidine-4-carboxamide] | 178 |
| Cc1cc(C(F)(F)F)cc(N2C(=O)[C@@H](O)[C@@H](O)[C@H]2C(=O)N(C)c2ccc(Cl)cc2F)n1 [Example 165, (2S,3S,4S)—N-(4-Chloro-2-fluorophenyl)-3,4-dihydroxy-N-methyl-1-(6-methyl-4-(trifluoromethyl)pyridin-2-yl)-5-oxopyrrolidine-2-carboxamide] | 20 |
| Cc1cc(C(F)(F)F)cc(N2C(=O)[C@@H](O)[C@@H](O)[C@H]2C(=O)N(C)c2ccc3ccn(C)c3n2)n1 [Example 167, (2S,3S,4S)-3,4-Dihydroxy-N-methyl-N-(1-methyl-1H-pyrrolo[2,3-b]pyridin-6-yl)-1-(6-methyl-4-(trifluoromethyl)pyridin-2-yl)-5-oxopyrrolidine-2-carboxamide] | 56 |
| Cc1cc(C(F)(F)F)cc(N2C(=O)[C@@H](O)[C@@H](O)[C@H]2C(=O)N(C)c2ccc3cnn(C)c3c2)n1 [Example 168, (2S,3S,4S)-3,4-Dihydroxy-N-methyl-N-(1-methyl-1H-indazol-6-yl)-1-(6-methyl-4-(trifluoromethyl)pyridin-2-yl)-5-oxopyrrolidine-2-carboxamide] | 71 |
| Cc1cc(C(F)(F)F)cc(N2C(=O)[C@@H](O)[C@@H](O)[C@H]2C(=O)N(C)c2ccc3c(n2)N(C)CCO3)n1 [Example 169, (2S,3S,4S)-3,4-Dihydroxy-N-methyl-N-(4-methyl-3,4-dihydro-2H-pyrido[3,2-b][1,4]oxazin-6-yl)-1-(6-methyl-4-(trifluoromethyl)pyridin-2-yl)-5-oxopyrrolidine-2-carboxamide] | 106 |
| Cc1cc(C(F)(F)F)cc(N2C(=O)[C@@H](O)[C@@H](O)[C@H]2C(=O)N(C)c2ccc(F)c(C)n2)n1 [Example 170, (2S,3S,4S)—N-(5-Fluoro-6-methylpyridin-2-yl)-3,4-dihydroxy-N-methyl-1-(6-methyl-4-(trifluoromethyl)pyridin-2-yl)-5-oxopyrrolidine-2-carboxamide] | 193 |
| Cc1cc(C(F)(F)F)cc(N2C(=O)OC[C@H]2C(=O)N(C)c2ccc(Cl)cc2Cl)n1 [Example 171, (S)-N-(2,4-Dichlorophenyl)-N-methyl-3-(6-methyl-4-(trifluoromethyl)pyridin-2-yl)-2-oxooxazolidine-4-carboxamide] | 68 |
| Cc1cc(C(F)(F)F)cc(N2C(=O)OC[C@H]2C(=O)N(C)c2ccc(Br)c(Cl)c2)n1 [Example 172, (S)-N-(4-Bromo-3-chlorophenyl)-N-methyl-3-(6-methyl-4-(trifluoromethyl)pyridin-2-yl)-2-oxooxazolidine-4-carboxamide] | 20 |
| Cc1cc(C(F)(F)F)cc(N2C(=O)OC[C@H]2C(=O)N(C)c2ccc3cn[nH]c3c2)n1 [Example 174, (S)—N-(1H-Indazol-6-yl)-N-methyl-3-(6-methyl-4-(trifluoromethyl)pyridin-2-yl)-2-oxooxazolidine-4-carboxamide] | 158 |
| Cc1cc(C(F)(F)F)cc(N2C(=O)OC[C@H]2C(=O)N(C)c2cccc(N)n2)n1 [Example 175, (S)—N-(6-Aminopyridin-2-yl)-N-methyl-3-(6-methyl-4-(trifluoromethyl)pyridin-2-yl)-2-oxooxazolidine-4-carboxamide] | 519 |

Other lines, results leading:

| IC50 [nM] | Compound |
| --- | --- |
| 6 | CCN(C(=O)[C@@H]1C[C@H](N2CCOC(CO)C2)CN1c1nc(C)cc(C(F)(F)F)c1C#N)c1ccc(Cl)c(Cl)c1 (stereo partly drawn) [Example 148, (2S,4S)-1-(3-Cyano-6-methyl-4-(trifluoromethyl)pyridin-2-yl)-N-(3,4-dichlorophenyl)-N-ethyl-4-(2-(hydroxymethyl)-morpholino)pyrrolidine-2-carboxamide] |
| 5 | CCN(C(=O)[C@@H]1C[C@H](N2CCOC(CO)C2)CN1c1nc(C)cc(C(F)(F)F)c1C#N)c1ccc(C)c(Cl)c1 (stereo partly drawn) [Example 149, (2S,4S)-N-(3-Chloro-4-methylphenyl)-1-(3-cyano-6-methyl-4-(trifluoromethyl)pyridin-2-yl)-N-ethyl-4-(2-(hydroxymethyl)morpholino)pyrrolidine-2-carboxamide] |
| 11 | CCN(C(=O)[C@@H]1C[C@H](N2CCOC(CO)C2)CN1c1nc(C)cc(C(F)(F)F)c1C#N)c1ccc(F)c(C)c1 (stereo partly drawn) [Example 150, (2S,4S)-1-(3-Cyano-6-methyl-4-(trifluoromethyl)pyridin-2-yl)-N-ethyl-N-(4-fluoro-3-methylphenyl)-4-(2-(hydroxymethyl)morpholino)pyrrolidine-2-carboxamide] |
| 15 | CCN(C(=O)[C@@H]1C[C@H](N2CCO[C@H](CO)C2)CN1c1nc(C)cc(C(F)(F)F)c1C#N)c1ccc(F)c(Cl)c1 [Example 154, (2S,4S)-N-(3-Chloro-4-fluorophenyl)-1-(3-cyano-6-methyl-4-(trifluoromethyl)pyridin-2-yl)-N-ethyl-4-((S)-2-(hydroxymethyl)morpholino)pyrrolidine-2-carboxamide] |
| 4 | Cc1cc(C(F)(F)F)cc(N2C(=O)NC[C@H]2C(=O)N(C)c2ccc(F)c(Cl)c2)n1 [Example 156, (S)—N-(3-Chloro-4-fluorophenyl)-N-methyl-3-(6-methyl-4-(trifluoromethyl)pyridin-2-yl)-2-oxoimidazolidine-4-carboxamide] |
| 2 | Cc1cc(C(F)(F)F)cc(N2C(=O)NC[C@H]2C(=O)N(C)c2ccc(F)c(Cl)c2F)n1 [Example 158, (S)—N-(3-Chloro-2,4-difluorophenyl)-N-methyl-3-(6-methyl-4-(trifluoromethyl)pyridin-2-yl)-2-oxoimidazolidine-4-carboxamide] |
| 6 | Cc1cc(C(F)(F)F)cc(N2C(=O)N(CC(C)O)C[C@H]2C(=O)N(C)c2ccc(F)c(Cl)c2)n1 (stereo partly drawn) [Example 160, (4S)—N-(3-Chloro-4-fluorophenyl)-1-(2-hydroxypropyl)-N-methyl-3-(6-methyl-4-(trifluoromethyl)pyridin-2-yl)-2-oxoimidazolidine-4-carboxamide] |
| 12 | Cc1cc(C(F)(F)F)cc(N2C(=O)NC[C@H]2C(=O)N(c2ccc(F)c(Cl)c2F)C2CC2)n1 [Example 161, (S)—N-(3-Chloro-2,4-difluorophenyl)-N-cyclopropyl-3-(6-methyl-4-(trifluoromethyl)-pyridin-2-yl)-2-oxoimidazolidine-4-carboxamide] |
| 3 | [2H]C([2H])([2H])N(C(=O)[C@@H]1[C@H](O)[C@H](O)C(=O)N1c1cc(C(F)(F)F)cc(C)n1)c1ccc(F)c(Cl)c1F [Example 162, (2S,3S,4S)—N-(3-Chloro-2,4-difluorophenyl)-3,4-dihydroxy-N-(methyl-d3)-1-(6-methyl-4-(trifluoromethyl)pyridin-2-yl)-5-oxopyrrolidine-2-carboxamide] |
| 11 | [2H]C([2H])([2H])N(C(=O)[C@@H]1[C@H](O)[C@H](O)C(=O)N1c1cc(C(F)(F)F)cc(C)n1)c1ccc(F)c(Cl)c1 [Example 163, (2S,3S,4S)—N-(3-Chloro-4-fluorophenyl)-3,4-dihydroxy-N-(methyl-d3)-1-(6-methyl-4-(trifluoromethyl)pyridin-2-yl)-5-oxopyrrolidine-2-carboxamide] |
| 7 | Cc1cc(C(F)(F)F)cc(N2C(=O)[C@@H](O)[C@@H](O)[C@H]2C(=O)N(C)c2ccc3cc[nH]c3n2)n1 [Example 166, (2S,3S,4S)-3,4-Dihydroxy-N-methyl-1-(6-methyl-4-(trifluoromethyl)pyridin-2-yl)-5-oxo-N-(1H-pyrrolo[2,3-b]pyridin-6-yl)pyrrolidine-2-carboxamide] |
| 13 | Cc1cc(C(F)(F)F)cc(N2C(=O)OC[C@H]2C(=O)N(C)c2ccc(C3CC3)c(Cl)c2)n1 [Example 173, (S)—N-(3-Chloro-4-cyclopropylphenyl)-N-methyl-3-(6-methyl-4-(trifluoromethyl)pyridin-2-yl)-2-oxooxazolidine-4-carboxamide] |
